According to ChEMBL document CHEMBL1122473, “Synthesis and antibacterial activity of some 3-[(alkylthio)methyl]quinoxaline 1-oxide derivatives” (1983):
In brackets after ≈: the same amount, converted by molar mass.

How the values were obtained:
Assay type in all cases: functional
Escherichia coli = assay: In vitro antibacterial activity under anaerobic conditions against Escherichia coli strain 51A266
Pasteurella multocida = assay: In vitro antibacterial activity under anaerobic conditions against Pasteurella multocida strain 59A004
Salmonella enterica = assay: In vitro antibacterial activity under anaerobic conditions against Salmonella choleraesuis strain 58B242
Streptococcus pyogenes = assay: In vitro antibacterial activity under anaerobic conditions against […] pyogenes strain 2C203
[1] = tested on: Brachyspira hyodysenteriae; assay: In vitro antibacterial activity under anaerobic conditions against Treponema hyodysenteriae strain 94A002

Compound: CCS(=O)(=O)Cc1nc2ccccc2[n+]([O-])c1C(=O)NC
- MIC (Escherichia coli): 12.5 µg/mL (≈ 40.4 µM)
- MIC (Pasteurella multocida): 6.25 µg/mL (≈ 20.2 µM)
- MIC (Salmonella enterica): 25 µg/mL (≈ 80.8 µM)
- MIC (Streptococcus pyogenes): 12.5 µg/mL (≈ 40.4 µM)
- MIC [1]: 6.25 µg/mL (≈ 20.2 µM)

Compound: CS(=O)(=O)Cc1nc2ccccc2[n+]([O-])c1C(N)=O
- MIC (Escherichia coli): 1.56 µg/mL (≈ 5.55 µM)
- MIC (Pasteurella multocida): 1.56 µg/mL (≈ 5.55 µM)
- MIC (Salmonella enterica): 3.12 µg/mL (≈ 11.1 µM)
- MIC (Streptococcus pyogenes): 0.78 µg/mL (≈ 2.77 µM)
- MIC [1]: 6.25 µg/mL (≈ 22.2 µM)

Compound: CC(=O)c1c(C[S+](C)[O-])nc2ccccc2[n+]1[O-] (configuration not stated)
- MIC (Escherichia coli): 25 µg/mL (≈ 94.6 µM)
- MIC (Pasteurella multocida): 3.12 µg/mL (≈ 11.8 µM)
- MIC (Salmonella enterica): 25 µg/mL (≈ 94.6 µM)
- MIC (Streptococcus pyogenes): 6.25 µg/mL (≈ 23.6 µM)
- MIC [1]: 6.25 µg/mL (≈ 23.6 µM)

Compound: CC(=O)c1c(CS(=O)(=O)CCO)nc2ccccc2[n+]1[O-]
- MIC (Escherichia coli): 25 µg/mL (≈ 80.6 µM)
- MIC (Pasteurella multocida): 1.56 µg/mL (≈ 5.03 µM)
- MIC (Salmonella enterica): 50 µg/mL (≈ 161 µM)
- MIC (Streptococcus pyogenes): 6.25 µg/mL (≈ 20.1 µM)
- MIC [1]: 3.12 µg/mL (≈ 10.1 µM)

Compound: COC(=O)c1c(CS(C)(=O)=O)nc2ccccc2[n+]1[O-]
- MIC (Escherichia coli): 3.12 µg/mL (≈ 10.5 µM)
- MIC (Pasteurella multocida): 0.78 µg/mL (≈ 2.63 µM)
- MIC (Salmonella enterica): 6.25 µg/mL (≈ 21.1 µM)
- MIC (Streptococcus pyogenes): 3.12 µg/mL (≈ 10.5 µM)
- MIC [1]: 1.56 µg/mL (≈ 5.26 µM)

Compound: COC(=O)c1c(CS(=O)(=O)CCO)nc2ccccc2[n+]1[O-]
- MIC (Escherichia coli): 6.25 µg/mL (≈ 19.2 µM)
- MIC (Pasteurella multocida): 1.56 µg/mL (≈ 4.78 µM)
- MIC (Salmonella enterica): 25 µg/mL (≈ 76.6 µM)
- MIC (Streptococcus pyogenes): 0.78 µg/mL (≈ 2.39 µM)
- MIC [1]: 1.56 µg/mL (≈ 4.78 µM)

Compound: CS(=O)(=O)Cc1nc2ccccc2[n+]([O-])c1C#N
- MIC (Escherichia coli): > 200 µg/mL
- MIC (Pasteurella multocida): 200 µg/mL (≈ 760 µM)
- MIC (Salmonella enterica): > 200 µg/mL
- MIC (Streptococcus pyogenes): 25 µg/mL (≈ 95 µM)

Compound: CCS(=O)(=O)Cc1nc2ccccc2[n+]([O-])c1C(C)=O
- MIC (Escherichia coli): 25 µg/mL (≈ 84.9 µM)
- MIC (Pasteurella multocida): 6.25 µg/mL (≈ 21.2 µM)
- MIC (Salmonella enterica): 50 µg/mL (≈ 170 µM)
- MIC (Streptococcus pyogenes): 1.56 µg/mL (≈ 5.3 µM)
- MIC [1]: 0.78 µg/mL (≈ 2.65 µM)

Compound: CC(=O)c1c(CS(C)(=O)=O)nc2ccccc2[n+]1[O-]
- MIC (Escherichia coli): 12.5 µg/mL (≈ 44.6 µM)
- MIC (Pasteurella multocida): 0.78 µg/mL (≈ 2.78 µM)
- MIC (Salmonella enterica): 12.5 µg/mL (≈ 44.6 µM)
- MIC (Streptococcus pyogenes): 1.56 µg/mL (≈ 5.57 µM)
- MIC [1]: 0.19 µg/mL (≈ 0.678 µM)

Compound: CC(=O)c1c(C[S+]([O-])CCO)nc2ccccc2[n+]1[O-] (configuration not stated)
- MIC (Escherichia coli): 25 µg/mL (≈ 84.9 µM)
- MIC (Pasteurella multocida): 3.12 µg/mL (≈ 10.6 µM)
- MIC (Salmonella enterica): 6.25 µg/mL (≈ 21.2 µM)
- MIC (Streptococcus pyogenes): 25 µg/mL (≈ 84.9 µM)

Compound: CS(=O)(=O)Cc1nc2ccccc2[n+]([O-])c1S(C)(=O)=O
- MIC (Escherichia coli): 25 µg/mL (≈ 79 µM)
- MIC (Pasteurella multocida): 3.12 µg/mL (≈ 9.86 µM)
- MIC (Salmonella enterica): 25 µg/mL (≈ 79 µM)
- MIC (Streptococcus pyogenes): 6.25 µg/mL (≈ 19.8 µM)
- MIC [1]: > 25 µg/mL

Compound: CNC(=O)c1c(CS(=O)(=O)CCO)nc2ccccc2[n+]1[O-]
- MIC (Escherichia coli): 6.25 µg/mL (≈ 19.2 µM)
- MIC (Pasteurella multocida): 3.12 µg/mL (≈ 9.59 µM)
- MIC (Salmonella enterica): 25 µg/mL (≈ 76.8 µM)
- MIC (Streptococcus pyogenes): 6.25 µg/mL (≈ 19.2 µM)
- MIC [1]: 12.5 µg/mL (≈ 38.4 µM)

Compound: CCCS(=O)(=O)Cc1nc2ccccc2[n+]([O-])c1C(C)=O
- MIC (Escherichia coli): 100 µg/mL (≈ 324 µM)
- MIC (Pasteurella multocida): 3.12 µg/mL (≈ 10.1 µM)
- MIC (Salmonella enterica): 200 µg/mL (≈ 649 µM)
- MIC (Streptococcus pyogenes): 6.25 µg/mL (≈ 20.3 µM)

Compound: CNC(=O)c1c(CS(C)(=O)=O)nc2ccccc2[n+]1[O-]
- MIC (Escherichia coli): 3.12 µg/mL (≈ 10.6 µM)
- MIC (Pasteurella multocida): 0.78 µg/mL (≈ 2.64 µM)
- MIC (Salmonella enterica): 6.25 µg/mL (≈ 21.2 µM)
- MIC (Streptococcus pyogenes): 6.25 µg/mL (≈ 21.2 µM)
- MIC [1]: 3.12 µg/mL (≈ 10.6 µM)

Compound: COC(=O)N/N=C/c1c[n+]([O-])c2ccccc2[n+]1[O-] [CARBADOX]
- MIC (Escherichia coli): 0.39 µg/mL (≈ 1.49 µM)
- MIC (Pasteurella multocida): 0.78 µg/mL (≈ 2.97 µM)
- MIC (Salmonella enterica): 0.19 µg/mL (≈ 0.725 µM)
- MIC (Streptococcus pyogenes): 0.19 µg/mL (≈ 0.725 µM)
- MIC [1]: 0.19 µg/mL (≈ 0.725 µM)
